Measured values reported in patent publication US4985433A, “2-amino-7-(pyridinylmethyl)-3H,5H-pyrrolo[3,2-d]pyrimidin-4-ones and pharmaceutical uses and compositions containing the same” (BioCryst, Inc., priority 1989, dated 1991).

Tested on: plasma inosine
Experiment: Plasma inosine after intraperitoneal injection in Lewis Rats (HPLC of plasma extract)
Type: in vivo
Details: intraperitoneal injection in aqueous carrier with ten percent DMSO, 30 mg twice per day, versus vehicle controls, plasma taken at specific times after administration
Procedure: A pharmaceutical composition for intraperitoneal injection is prepared for testing the compound (IA). An intraperitoneal injection solution containing the compound of Example 8 is dissolved in an aqueous carrier that contains ten percent DMSO.
The compound (IA) is intraperitoneally injected into Lewis Rats via the test composition of Example 21 to provide 30 mg of the compound (IA), with an injection given twice per day. Controls are used, which receive only the vehicle. At specific times after administration, the animals are sacrificed and plasma samples are prepared. The plasma is extracted with cold 0.5N HClO4 and neutralized with solid NH4 HCO3. After removal of perchlorate salts, the extract is subjected to HPLC on a reversed phase column (Spherisorb ODSI).
Compounds prepared as in Examples 10-20 are each made into a pharmaceutical formulation in accordance with the preparation of Example 21 and the resultant injectable solutions are tested in accordance with the procedure of Example 22.

Nc1nc2c(Cc3cccnc3)c[nH]c2c(=O)[nH]1 [compound (IA), 2-amino-7-(3-pyridinylmethyl)-3H,5H-pyrrolo[3,2-d]pyrimidin-4-one]
plasma inosine: significant increase
